Results on one compound are retold here after publication PMC5642494 (Oncotarget, 2017).

One assay relates to MCF7 cells. In words: Annexin V/PI flow cytometry, MCF7. The class given is cell-based, human. Conditions: 3 DT (untreated 11.1%). The procedure: (§1) Annexin V/PI staining was performed following the vendor’s specifications in MCF7 and MDA-MB-361 cells. […] Raw data were analyzed with FlowJo X software. Events were gated for debris exclusion and singlets selection. A minimum of 10,000 cells were analyzed per sample.
For orientation: A flow cytometer gives signals particle by particle.

A further assay has as its system MDA-MB-361 cells. The assay can be described thus: Annexin V/PI flow cytometry, MDA-MB-361. Type of assay: cell-based, human. The following applies: 3 DT (untreated 45.7%). The procedure: as §1
In a further assay the test system is ZR-75-1 xenograft tumors. In words: mRNA expression of cell cycle regulatory genes in ZR-75-1 xenograft tumors. Type of assay: in vivo, mouse. The following applies: 50 or 75 mg/kg QDx5; Cyclin E, MCM7, CDKN2C, PTEN, AURA, CCNB1, FOXM1, RRM2, MKI67, Topo IIα. The procedure: page 4: or pHH3 facilitates quantification of the inhibition of #79654). The suspension was placed on the Qiashredder cell cycle progression since lower expression of these 2 columns (Qiagen #79654) and RNA was purified by biomarkers quantitatively correlates with the extent of following the protocol for the RNAeasy Mini Kit (Qiagen progression of cells through either S-phase (Topo IIα) or # 74104). Following the last wash, the purified RNA was M-phase (pHH3). The inhibition of CDK9 was assessed eluted using […] RNase-free water and collected in by measuring the inhibition of either MCL1 expression labeled DNase/RNase-free collection tubes. The quantity or phosphorylation of […] on the C-terminal domain of RNA was measured by spectral analysis using the repeat on RNA polymerase II (pCTD). The visualization Nanodrop Spectrophotometer (NanoDrop Products, of the signals corresponding to these biomarkers was Wilmington, DE, USA) and then placed in -80 degree […] achieved through development with the ECL SuperSignal freezer for analysis. The cDNA preparation was completed chemo-luminescence kit (Pierce) and image capture using as described in the included kit protocol using Superscript the Fuji LAS400 image capture instrument. […] Isolation and purification of RNA from tumors All samples, once quantitated, were delivered to […] […]

The subject of assay [1] is MCF7, MDA-MB-361 and EFM-19 cells. In words: Cell morphology by bright field microscopy. Type of assay: cell-based, human. The following applies: 0.5 µM, 3 DT.
Procedure: (A–D) Cells were treated with 0.2% DMSO (A MDA-
3 DT and side scatter (SSC) analysis was carried out using flow cytometry and analyzed with FlowJo X software.

Regarding `CCN1CCN(Cc2ccc(Nc3ncc(F)c(-c4cc(F)c5nc(C)n(C(C)C)c5c4)n3)nc2)CC1` [abemaciclib, Abemaciclib], the “cells positive for annexin V” value in the assay on MCF7 cells (0.5 µM) is 41.4%; with MCF7 cells (2 µM) it was 66.7%; in the assay with MDA-MB-361 cells (0.5 µM) it was 84.6%; in the assay on MDA-MB-361 cells (2 µM) it was 88.8%. Further, the “mRNA expression of cell cycle genes in tumors” value with ZR-75-1 xenograft tumors is “suppression of the expression of several genes”. Besides, the cell morphology entry in assay [1] is “larger and flatter compared to vehicle-treated cells”.
